Source: patent EP4778522A1, “USE OF PYRROLOPYRIMIDINE COMPOUND AND COMPOSITION THEREOF” (Guangzhou Joyo Pharmatech Co., Ltd., priority 2023, dated 2025)
Several values for one entry are separate records, joined by “and”; a condition that tells them apart may be missing. Equal entries are not always repeated. Marks after values point to notes of the source that are not given here.

Tests used:
[1] = test system: monobenzone-induced mouse vitiligo model; test: Monobenzone-induced mouse vitiligo model: hair depigmentation area scoring; assay type: in vivo, C57BL/6 mice; parameters: Hair depigmentation area scoring: scale not given here
Experimental: • 1) Animals: C57BL/6 mice, specific pathogen-free (SPF), with equal numbers of females and males. The mice were 6-8 weeks old at grouping, with 10 mice per group. The animals were provided by Charles River Laboratories. • 2) Reagents, positive drugs and test drugs
Monobenzone induction method: after 1 week of adaptive feeding of all the animals, modeling was performed and all black hairs on the back of the mice were removed by a shaver. 10 animals were randomly selected as a normal control group and applied with 50 mg of vaseline once a day; and the remaining 80 animals were used for modeling and applied with 50 mg of 40% monobenzone depigmentation ointment once a day. The applying area of the normal control group and the model group was 2 cm*3 cm of the fixed part of the back, and the modeling was continuously performed for 103 days. In order to prevent the phenomenon that the animals lick the drugs, after the animals were applied with a modeling agent, they needed to be separately placed in an independent cage without padding for a period of time to naturally dry the modeling agent, and then they were placed in a rearing cage for normal rearing. During the modeling process, new hairs grown in the alopecic areas of the backs of the mice were shaved by the shaver and then applied with the drug.
The 40% monobenzone depigmentation ointment was applied every day. After modeling for 53 days, according to a depigmentation area score (see scoring criteria of Table 9), 70 animals successfully modeled in modeling group (score ≥ 2) were randomly divided into 7 groups with 10 mice per group. The mean depigmentation area score of the animals in each group was basically consistent before the administration, and the day of grouping was defined as day 0 of the administration treatment period. Table 8 Grouping and administration regimen
During the whole experiment process, the mice in normal control group (G1) were applied with 50 mg of vaseline once a day; and the mice in each model group (G2-G8) were applied with 50 mg of 40% monobenzone ointment once a day. After modeling for 53 days, the mice were grouped and subjected to drug treatment after grouping consecutively for 50 days. The modeling operation was maintained during the drug intervention period. The mice were applied with the drug twice a day for treatment at an interval of 6 hours or more. […]

[2] = test system: monobenzone-induced mouse vitiligo model; test: Monobenzone-induced mouse vitiligo model: skin pathological analysis of melanin-containing hair follicles; assay type: in vivo, C57BL/6 mice; details: for Number of melanin-containing hair follicles / Proportion of melanin-containing hair follicles (%): 30 mg topical twice a day for 50 days
Experimental: The mice were euthanized within 2-4 hours after the last administration, and approximately 1 cm^2 of the skin in the center of the depilated part of the mice was taken and fixed with 4% paraformaldehyde. The animal skin tissues were fixed with 4% paraformaldehyde, dehydrated, embedded with paraffin, sectioned and then subjected to HE staining. The stained sections were photographed by white light panoramic scanning, histopathological changes of the skin tissues and inflammatory cell infiltration were observed, and the number of melanin-containing hair follicles and/or the proportion of the melanin-containing hair follicles in the skin were quantitatively analyzed. The panoramic scanning files were opened by using CaseViewer software, a picture view with the length of about 3.8 mm was randomly selected, and the pictures were saved. The number of all the hair follicles and the number of the melanin-containing hair follicles in the picture were counted respectively by using ipwin32 software. The proportion of the melanin-containing hair follicles was calculated according to the following formula: Proportion of melanin-containing hair follicles = number of melanin-containing follicles/number of all follicles

[3] = test system: FITC-induced mouse atopic dermatitis model; test: FITC-induced mouse atopic dermatitis model: histopathological scoring of ears; assay type: in vivo, Balb/c mice; details: pathological score (0-4), right ear, day 13, 20 mg/dose topical twice a day
Excerpt: On day 13, all the experimental animals were euthanized by CO2 and cervical dislocation, and then the right ears were collected and fixed in 10% formalin for histopathological analysis.
After the ear tissues were embedded with paraffin, each ear tissue was sliced into 3-5 µm sections. After HE staining, the sections were subjected to routine histopathological evaluation and ear tissue thickness measurement. Table 4 Histopathological scoring criteria

CN(c1ncnc2[nH]ccc12)[C@@H]1CCc2cc(C#N)nn2C1 [compound I]
Hair depigmentation area scoring ([1]; Day 0 (before administration), 0.5% compound I gel group): 3.80
Hair depigmentation area scoring ([1]; Day 0 (before administration), 1% compound I gel group): 3.70
Hair depigmentation area scoring ([1]; Day 0 (before administration), 2% compound I gel group): 3.80
Hair depigmentation area scoring ([1]; Day 10, 0.5% compound I gel, 30 mg topical twice a day): 3.60 **
Hair depigmentation area scoring ([1]; Day 10, 1% compound I gel, 30 mg topical twice a day): 3.90 **
Hair depigmentation area scoring ([1]; Day 10, 2% compound I gel, 30 mg topical twice a day): 4.00 **
Hair depigmentation area scoring ([1]; Day 20, 0.5% compound I gel, 30 mg topical twice a day): 3.60 **
Hair depigmentation area scoring ([1]; Day 20, 1% compound I gel, 30 mg topical twice a day): 3.60 **
Hair depigmentation area scoring ([1]; Day 20, 2% compound I gel, 30 mg topical twice a day): 3.50 **
Hair depigmentation area scoring ([1]; Day 30, 0.5% compound I gel, 30 mg topical twice a day): 3.30 **
Hair depigmentation area scoring ([1]; Day 30, 1% compound I gel, 30 mg topical twice a day): 3.40 **
Hair depigmentation area scoring ([1]; Day 30, 2% compound I gel, 30 mg topical twice a day): 3.10 **
Hair depigmentation area scoring ([1]; Day 35, 0.5% compound I gel, 30 mg topical twice a day): 3.20 **
Hair depigmentation area scoring ([1]; Day 35, 1% compound I gel, 30 mg topical twice a day): 3.10 **
Hair depigmentation area scoring ([1]; Day 35, 2% compound I gel, 30 mg topical twice a day): 2.90 **
Hair depigmentation area scoring ([1]; Day 38, 0.5% compound I gel, 30 mg topical twice a day): 3.20 **
Hair depigmentation area scoring ([1]; Day 38, 1% compound I gel, 30 mg topical twice a day): 2.90 **
Hair depigmentation area scoring ([1]; Day 38, 2% compound I gel, 30 mg topical twice a day): 2.60 **
Hair depigmentation area scoring ([1]; Day 41, 0.5% compound I gel, 30 mg topical twice a day): 2.90 **
Hair depigmentation area scoring ([1]; Day 41, 1% compound I gel, 30 mg topical twice a day): 2.60 **
Hair depigmentation area scoring ([1]; Day 41, 2% compound I gel, 30 mg topical twice a day): 2.30 **
Hair depigmentation area scoring ([1]; Day 44, 0.5% compound I gel, 30 mg topical twice a day): 2.80 **
Hair depigmentation area scoring ([1]; Day 44, 1% compound I gel, 30 mg topical twice a day): 2.50 **
Hair depigmentation area scoring ([1]; Day 44, 2% compound I gel, 30 mg topical twice a day): 2.20 **
Hair depigmentation area scoring ([1]; Day 47, 0.5% compound I gel, 30 mg topical twice a day): 2.60 **
Hair depigmentation area scoring ([1]; Day 47, 1% compound I gel, 30 mg topical twice a day): 2.40 **
Hair depigmentation area scoring ([1]; Day 47, 2% compound I gel, 30 mg topical twice a day): 2.20 **
mean inhibitory rate of depigmentation area scores ([1]; Day 50, 0.5% compound I gel, 30 mg (5 mg/cm^2), compared with the model control group): 52.0%
Hair depigmentation area scoring ([1]; Day 50, 0.5% compound I gel, 30 mg topical twice a day): 2.50 **
mean inhibitory rate of depigmentation area scores ([1]; Day 50, 1% compound I gel, 30 mg (5 mg/cm^2), compared with the model control group): 54.9%
Hair depigmentation area scoring ([1]; Day 50, 1% compound I gel, 30 mg topical twice a day): 2.30 **
mean inhibitory rate of depigmentation area scores ([1]; Day 50, 2% compound I gel, 30 mg (5 mg/cm^2), compared with the model control group): 58.8%
Hair depigmentation area scoring ([1]; Day 50, 2% compound I gel, 30 mg topical twice a day): 2.10 **
mean inhibitory rate of depigmentation area scores ([1]; day 50, high concentration (2%) compound I gel, compared with the blank preparation group): 51.2%
mean inhibitory rate of depigmentation area scores ([1]; day 50, low concentration (0.5%) compound I gel, compared with the blank preparation group): 41.9%
mean inhibitory rate of depigmentation area scores ([1]; day 50, medium concentration (1%) compound I gel, compared with the blank preparation group): 46.5%
therapeutic effect (comparison) ([2]; 1% and 2% compound I gel, reduction of melanin-containing hair follicles in vitiligo model): equivalent to that of 1.5% ruxolitinib and superior to that of 0.03% tacrolimus
Number of melanin-containing hair follicles ([2]; 1% compound I gel): 30.3
Proportion of melanin-containing hair follicles (%) ([2]; 1% compound I gel): 29.7 ± 9.1% and 29.7%
Number of melanin-containing hair follicles ([2]; 1% compound I gel, listed as Compound I): 30.3 ± 14.8
number of the melanin-containing hair follicles, increase compared to the blank preparation group ([2]; 2% compound I gel): 37.9%
number of the melanin-containing hair follicles, times that of the model control group ([2]; 2% compound I gel): about 4 times
proportion of the melanin-containing hair follicles relative to the model control group ([2]; 2% compound I gel): about twice
Number of melanin-containing hair follicles ([2]; 2% compound I gel): 26.9*
Proportion of melanin-containing hair follicles (%) ([2]; 2% compound I gel): 30.6 ± 6.2% and 30.6%
Number of melanin-containing hair follicles ([2]; 2% compound I gel, listed as Compound I): 26.9 ± 7.4
therapeutic effect (comparison) ([2]; 2% compound I gel, proportion of melanin-containing hair follicles): equivalent to that of the ruxolitinib ointment
Enlargement of follicular orifice ([3]; 1% gel): 1.50 ± 0.17 and 1.50
Enlargement of follicular orifice ([3]; 2% gel): 1.30 ± 0.26 and 1.30
